Measured values published in ChEMBL document CHEMBL2346648, “A series of thiazole derivatives bearing thiazolidin-4-one as non-competitive ADAMTS-5 (aggrecanase-2) inhibitors” (Bioorg Med Chem Lett, 2013).

Key:
[1] = molecular target: T1, A disintegrin and metalloproteinase with thrombospondin motifs 5 (Bos taurus) (UniProt Q9TT92); experiment: Ex vivo inhibition of ADAMTS-5-mediated aggrecan degradation in IL-1-stimulated bovine cartilage explant at 30 uM
T1 sequence (whole entry): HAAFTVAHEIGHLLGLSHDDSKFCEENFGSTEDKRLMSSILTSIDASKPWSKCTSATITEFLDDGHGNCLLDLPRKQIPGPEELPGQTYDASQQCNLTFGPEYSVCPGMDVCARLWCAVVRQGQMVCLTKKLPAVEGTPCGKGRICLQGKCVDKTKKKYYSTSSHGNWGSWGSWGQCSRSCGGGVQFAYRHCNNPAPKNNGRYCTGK

[2] = molecular target: T2, A disintegrin and metalloproteinase with thrombospondin motifs 4 (Homo sapiens, UniProt O75173); experiment: Inhibition of ADAMTS-4 (unknown origin) by FRET method
T2 sequence (O75173 whole entry): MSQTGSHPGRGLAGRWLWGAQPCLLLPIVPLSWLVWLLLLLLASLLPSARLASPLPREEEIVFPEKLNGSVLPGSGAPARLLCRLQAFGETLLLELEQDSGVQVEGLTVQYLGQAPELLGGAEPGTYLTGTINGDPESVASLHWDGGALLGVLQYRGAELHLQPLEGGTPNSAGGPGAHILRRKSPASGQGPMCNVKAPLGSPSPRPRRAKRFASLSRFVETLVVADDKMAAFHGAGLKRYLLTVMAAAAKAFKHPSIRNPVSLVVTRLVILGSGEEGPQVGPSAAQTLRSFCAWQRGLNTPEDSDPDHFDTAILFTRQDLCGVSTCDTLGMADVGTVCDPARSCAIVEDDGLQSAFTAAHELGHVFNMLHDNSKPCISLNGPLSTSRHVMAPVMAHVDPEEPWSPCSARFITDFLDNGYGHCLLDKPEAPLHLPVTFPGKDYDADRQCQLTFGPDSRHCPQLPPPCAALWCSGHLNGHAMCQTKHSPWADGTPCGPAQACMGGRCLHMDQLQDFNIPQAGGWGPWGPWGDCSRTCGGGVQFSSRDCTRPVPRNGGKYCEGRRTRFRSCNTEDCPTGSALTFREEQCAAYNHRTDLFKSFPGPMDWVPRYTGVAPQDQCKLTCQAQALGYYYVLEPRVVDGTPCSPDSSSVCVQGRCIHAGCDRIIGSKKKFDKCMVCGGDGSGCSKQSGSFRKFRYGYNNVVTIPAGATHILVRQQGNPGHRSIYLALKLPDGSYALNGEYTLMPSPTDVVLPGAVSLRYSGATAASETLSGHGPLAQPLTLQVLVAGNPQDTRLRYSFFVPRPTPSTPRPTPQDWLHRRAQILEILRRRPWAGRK

[3] = molecular target: T3, A disintegrin and metalloproteinase with thrombospondin motifs 13 (Homo sapiens, UniProt Q76LX8); experiment: Inhibition of ADAMTS-13 (unknown origin)
T3 sequence (Q76LX8 whole entry): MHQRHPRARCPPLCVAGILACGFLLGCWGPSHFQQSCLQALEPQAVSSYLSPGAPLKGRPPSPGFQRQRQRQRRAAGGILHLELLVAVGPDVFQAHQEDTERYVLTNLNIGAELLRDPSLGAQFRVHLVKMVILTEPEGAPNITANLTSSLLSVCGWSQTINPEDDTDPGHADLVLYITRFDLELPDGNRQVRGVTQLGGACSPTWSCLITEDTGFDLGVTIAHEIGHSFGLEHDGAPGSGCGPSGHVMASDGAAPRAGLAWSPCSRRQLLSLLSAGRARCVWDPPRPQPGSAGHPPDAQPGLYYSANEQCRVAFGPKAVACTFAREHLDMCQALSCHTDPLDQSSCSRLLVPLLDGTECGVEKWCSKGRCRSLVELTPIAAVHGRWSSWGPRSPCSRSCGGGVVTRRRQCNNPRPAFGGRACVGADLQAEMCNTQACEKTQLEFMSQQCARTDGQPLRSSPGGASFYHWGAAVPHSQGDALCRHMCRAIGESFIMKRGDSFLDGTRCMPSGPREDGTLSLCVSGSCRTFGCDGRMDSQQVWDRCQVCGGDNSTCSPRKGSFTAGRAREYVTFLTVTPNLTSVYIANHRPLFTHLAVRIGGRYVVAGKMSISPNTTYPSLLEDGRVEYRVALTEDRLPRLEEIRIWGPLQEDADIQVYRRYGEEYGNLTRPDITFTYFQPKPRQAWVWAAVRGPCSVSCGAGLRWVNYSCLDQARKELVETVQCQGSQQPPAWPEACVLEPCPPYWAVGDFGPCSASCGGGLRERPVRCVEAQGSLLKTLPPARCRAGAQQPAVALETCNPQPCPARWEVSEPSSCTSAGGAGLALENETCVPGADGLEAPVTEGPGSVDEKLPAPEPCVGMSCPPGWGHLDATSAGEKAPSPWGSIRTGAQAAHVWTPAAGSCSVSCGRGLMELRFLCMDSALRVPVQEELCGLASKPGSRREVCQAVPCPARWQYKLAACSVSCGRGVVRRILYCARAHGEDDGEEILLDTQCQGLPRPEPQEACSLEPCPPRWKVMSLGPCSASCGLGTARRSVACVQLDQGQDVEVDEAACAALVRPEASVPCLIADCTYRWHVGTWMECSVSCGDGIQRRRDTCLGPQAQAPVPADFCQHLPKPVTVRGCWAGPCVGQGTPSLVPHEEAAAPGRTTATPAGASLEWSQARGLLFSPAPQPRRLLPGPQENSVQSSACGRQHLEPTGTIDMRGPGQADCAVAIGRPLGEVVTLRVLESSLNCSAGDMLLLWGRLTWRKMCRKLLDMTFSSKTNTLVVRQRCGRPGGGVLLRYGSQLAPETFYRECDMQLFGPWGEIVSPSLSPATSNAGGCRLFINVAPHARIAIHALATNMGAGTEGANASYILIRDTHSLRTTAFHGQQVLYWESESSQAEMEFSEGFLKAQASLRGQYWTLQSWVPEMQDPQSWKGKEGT

[4] = Intrinsic clearance in […]; type: ADME
Stromelysin-1 = Stromelysin-1 (Homo sapiens, UniProt P08254); experiment: Inhibition of MMP3 (unknown origin) by FRET method
Chain of Stromelysin-1 (P08254 whole entry): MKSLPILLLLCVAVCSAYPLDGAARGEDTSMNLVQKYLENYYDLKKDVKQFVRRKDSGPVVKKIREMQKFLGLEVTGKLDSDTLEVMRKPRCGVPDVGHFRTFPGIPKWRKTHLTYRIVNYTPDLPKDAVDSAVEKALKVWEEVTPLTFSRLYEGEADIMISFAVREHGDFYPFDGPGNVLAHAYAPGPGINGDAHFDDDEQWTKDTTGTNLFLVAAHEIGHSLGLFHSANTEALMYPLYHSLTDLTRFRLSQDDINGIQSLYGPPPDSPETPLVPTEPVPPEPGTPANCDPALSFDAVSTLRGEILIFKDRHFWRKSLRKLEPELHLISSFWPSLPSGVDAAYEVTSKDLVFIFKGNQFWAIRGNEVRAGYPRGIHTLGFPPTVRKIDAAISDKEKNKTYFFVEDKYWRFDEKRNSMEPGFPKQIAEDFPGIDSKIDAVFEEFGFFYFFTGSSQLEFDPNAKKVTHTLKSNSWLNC

[5] = molecular target: Matrix metalloproteinase-14 (Homo sapiens, UniProt P50281); experiment: Inhibition of MMP14 (unknown origin) by FRET method
[6] = molecular target: Disintegrin and metalloproteinase domain-containing protein 17 (Homo sapiens, UniProt P78536); experiment: Inhibition of TACE (unknown origin)
Chain of Disintegrin and metalloproteinase domain-containing protein 17 (P78536 whole entry, the tested form may be a part): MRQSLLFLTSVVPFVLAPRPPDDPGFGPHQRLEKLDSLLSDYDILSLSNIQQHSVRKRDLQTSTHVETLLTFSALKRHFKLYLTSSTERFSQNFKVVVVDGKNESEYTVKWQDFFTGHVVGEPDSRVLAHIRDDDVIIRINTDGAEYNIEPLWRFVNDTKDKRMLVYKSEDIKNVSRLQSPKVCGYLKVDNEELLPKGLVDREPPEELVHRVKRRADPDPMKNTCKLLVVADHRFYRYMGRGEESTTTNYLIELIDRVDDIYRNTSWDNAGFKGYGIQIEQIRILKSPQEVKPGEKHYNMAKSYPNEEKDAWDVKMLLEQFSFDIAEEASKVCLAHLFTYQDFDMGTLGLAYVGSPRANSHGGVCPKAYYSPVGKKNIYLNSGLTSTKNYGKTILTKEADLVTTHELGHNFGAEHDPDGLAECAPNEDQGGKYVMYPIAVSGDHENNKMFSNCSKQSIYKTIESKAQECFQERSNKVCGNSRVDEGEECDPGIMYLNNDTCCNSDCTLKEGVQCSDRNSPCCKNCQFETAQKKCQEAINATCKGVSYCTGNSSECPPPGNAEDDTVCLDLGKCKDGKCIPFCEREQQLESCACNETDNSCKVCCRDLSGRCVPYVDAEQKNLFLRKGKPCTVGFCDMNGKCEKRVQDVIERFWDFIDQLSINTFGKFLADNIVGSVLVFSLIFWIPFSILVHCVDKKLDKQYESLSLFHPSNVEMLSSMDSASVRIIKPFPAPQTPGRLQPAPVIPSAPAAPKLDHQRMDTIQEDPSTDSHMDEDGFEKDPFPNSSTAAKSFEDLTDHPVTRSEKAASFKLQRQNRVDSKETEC

[7] = Apparent permeability from apical to basolateral side of MDCK cells by transwell assay; type: ADME, cell-based, Canis lupus familiaris; settings: dog

inhibition [1]: 66%
IC50 [2]: 23 µM
IC50 [3]: 20 µM
CLint scaled [4]: 0.162 L/h/kg
IC50 (Stromelysin-1): > 30 µM
IC50 [5]: 24 µM
IC50 [6]: > 30 µM
Papp A→B [7]: 55.5 nm/s
Compound: O=C(O)CCc1sc(/C=C2\NC(=O)CS2)nc1-c1ccccn1
